Data taken from US5025024A, “Therapeutically active fluoro-substituted compound” (priority 1988, dated 1991).

Legend:
[1] = Inhibition of Gastric Acid Secretion in the Conscious Male Rat; format: in vivo, male rats of the Sprague-Dawley strain; conditions: in vivo, ratio ED50 iv/ED50 id, read-out: "Bioavailability" measured by the Rough Screening Model, Rat ED50 iv/ED50 id
Experimental: (§1) Since the bioavailability model described above is time and labour intensive, and requires a large number of plasma analyses, also a rough screening model, based on relative potencies to inhibit acid secretion, has been used (see for instance: A. Goth, Medical Pharmacology, 7th ed., C. V. Mosby Company, Saint Louis 1974, p 19). Thus, the ratio (called "Bioavailability" in Table 3) between the ED50 at intravenous administration and the ED50 at intraduodenal administration was calculated.
(§2) The potency for inhibition of acid secretion has been measured in the male rat and the dog, both intravenously and intraduodenally. When it comes to relevance of the animal test data for potency of a given compound in man for the present type of compounds, it is believed that potency in man will correspond to a level somewhere between what is measured in the male rat and what is measured in the dog.
(§3) Inhibition of Gastric Acid Secretion in the Conscious Male Rat
(§4) Male rats of the Sprague-Dawley strain were used. They were equipped with cannulated fistulae in the stomach (lumen) and the upper part of the duodenum, for collection of gastric secretions and administration of test substances, respectively. A fourteen days recovery period after surgery was allowed before testing commenced.
(§5) Before secretory tests, the animals were deprived of food but not water for 20 h. The stomach was repeatedly washed through the gastric cannula, and 6 ml of Ringer-Glucose given s.c. Acid secretion was stimulated with a infusion during 3.5 h (1.2 ml/h, s.c.) of pentagastrin and carbachol (20 and 110 nmol/kg h, respectively), during which time gastric secretions were collected in 30-min fractions. Test substances or vehicle were given iv or id at 90 min after starting the stimulation, in a volume of 1 ml/kg. Gastric juice samples were titrated to pH 7.0 with NaOH, 0.1 mol/L, and acid output calculated as the product of titrant volume and concentration. Further calculations were based on group mean responses from 4-5 rats. The acid output during the periods after administration of test substances or vehicle were expressed as fractional responses, setting the acid output in the 30-min period preceding administration to 1.0. Percentage inhibition was calculated from the fractional responses elicited by test compound and vehicle. ED50 -values were obtained from graphical interpolation on log dose-response curves, or estimated from single-dose experiments assuming a similar slope for all dose-response curves. An estimation of the bioavailability was obtained by calculating the ratio ED50 iv/ED50 id. The results reported are based on gastric acid secretion during the second hour after drug/vehicle administration.

gastric acid secretion [2] = experiment: as above; format: in vivo, male rats of the Sprague-Dawley strain; conditions: 2 h, pentagastrin and carbachol stimulation, second hour after administration
Experimental: as §1, §2, §3, §4, §5

gastric acid secretion [3] = experiment: Inhibition of Gastric Acid Secretion in the Conscious Dog; format: in vivo, Harrier dogs; conditions: for ED50: Canis lupus familiaris, dog, histamine-stimulated, acid output 2 h after dosing
Experimental: as §2
(§6) Inhibition of Gastric Acid Secretion and Bioavailability in the Conscious Dog
(§7) Harrier dogs of either sex were used. They were equipped with a duodenal fistula for the administration of test compounds or vehicle and a cannulated ventricular fistula for the collection of gastric secretions.
Before secretory tests the animals were fasted for about 18 h but water was freely allowed. Gastric acid secretion was stimulated by a 4 h infusion of histamine dihydrochloride (12 ml/h) at a dose producing about 80% of the individual maximal secretory response, and gastric juice collected in consecutive 30-min fractions. Test substance or vehicle was given id or iv 1 h after starting the histamine infusion, in a volume of 0.5 ml/kg body weight. The acidity of the gastric juice samples were determined by titration to pH 7.0, and the acid output calculated. The acid output in the collection periods after administration of test substance or vehicle were expressed as fractional responses, setting the acid output in the fraction preceding administration to 1.0. Percentage inhibition was calculated from fractional responses elicited by test compound and vehicle. ED50 -values were obtained by graphical interpolation on log dose-response curves, or estimated from single-dose experiments under the assumption of the same slope of the dose-response curve for all test compounds. All results reported are based on acid output 2 h after dosing.

[4] = Bioavailability in the Male Rat (AUC method); format: in vivo, male rats of the Sprague-Dawley strain; conditions: id vs iv, 4 μmol/kg; for bioavailability: blood, 4 umol/kg, read-out: Bioavailability measured by the AUC-method, F %, Rat
Text: The results from tests on two different animal species, rat and dog, vary in regard to measured level of bioavailability for the same compound. We believe that the rat is the more relevant species for bioavailability testing. This is based on our belief that liver metabolism has the most predominant impact upon bioavailability, and that the liver metabolic pattern in man for this type of compounds is quite similar to that of the male rat (more so than of the female rat and the dog). Moreover, test results of bioavailability in the male rat will tend to give a broader "spread" compared with the test results in the dog, and thus the male rat model will give more clear differences in bioavailability between different compounds. Stated in another way, the bioavailability as tested in the male rat can be expected to give a better estimate of the relative differences in man between different test compounds compared with the test results obtained when using the same compounds in the dog.
(§8) Bioavailability is assessed by calculating the quotient between the area under plasma concentration (AUC) curve following intraduodenal (id) administration and intravenous (iv) administration from the rat or the dog. Low, therapeutically relevant doses, were used. This method is scientifically recognized as valid for assessing bioavailability (see for instance: M. Rowland and T. N. Tozer, Clinical Pharmacokinetics, 2nd ed., Lea & Febiger, London 1989, p 42).
Bioavailability in the Male Rat
Male adult rats of the Sprague-Dawley strain were used. One day, prior to the experiments, all rats were prepared by cannulation of the left carotid artery under anaesthesia. The rats used for the intravenous experiments, were also cannulated in the jugular vein. […]
The area under the blood concentration vs time curve, AUC, was determined by the linear trapezoidal rule and extrapolated to infinity by dividing the last determined blood concentration by the elimination rate constant in the terminal phase. The systemic bioavailability (F%) following intraduodenal administration was calculated as [formula]

[5] = Bioavailability in the Conscious Dog (AUC method); format: in vivo, Harrier dogs; conditions: plasma, id vs iv, AUCid/AUCiv, read-out: Bioavailability measured by the AUC-method, F %, Dog
Experimental: as §8, §6, §7
Blood samples for the analysis of test compound concentration in plasma were taken at intervals up to 3 h after dosing. Plasma was separated and frozen within 30 min after collection. AUC (area under the plasma concentration-time curve), extrapolated to infinite time, was calculated by the linear trapezoidal rule. The systemic bioavailability (F%) after id administration was calculated as 100×(AUCid /AUCiv).

[6] = Chemical Stability at pH 7; format: physicochemical; conditions: pH 7, 37° C., aqueous buffer solution; for half-life: read-out: Chemical Stability at pH 7, half-life (t 1/2) (converted)
Experimental: The chemical stability of various compounds of the invention has been followed kinetically at low concentration at 37° C. in aqueous buffer solution at different pH values. The results in Table 3 show the half life (t1/2) at pH 7, that is the time period after which half the amount of the original compound remains unchanged.

[7] = id, read-out: Inhibition of acid secretion, Rat ED50, id
[8] = iv, read-out: Inhibition of acid secretion, Rat ED50, iv

Row | bioavailability [1] | bioavailability [4] | bioavailability [5] | Chemical Stability at pH 7, half-life (t 1/2) [6] | half-life [6] | Bioavailability measured by the AUC-method, F %, Rat [4] | Structure (SMILES) | ED50 (gastric acid secretion [2]; [7]) | ED50 (gastric acid secretion [2]; [8]) | ED50 (gastric acid secretion [3]; id, read-out: Inhibition of acid secretion, Dog ED50, id) | ED50 (gastric acid secretion [3]; iv, read-out: Inhibition of acid secretion, Dog ED50, iv) | inhibition (of acid secretion), Dog 1 (gastric acid secretion [3]; Dog 1, 3 μmol/kg, id) | inhibition (of acid secretion), Dog 2 (gastric acid secretion [3]; Dog 2, 3 μmol/kg, id)
1 | 40% | 96% | 95% | 23 h | 23 h | – | COc1ccnc(C[S+]([O-])c2nc3c(F)cccc3[nH]2)c1 (stereo not drawn) [Example 1, 4-fluoro-2-[[(4-methoxy-2-pyridinyl)methyl]sulfinyl]-1H-benzimidazole] | 2.4 µmol/kg | 0.96 µmol/kg | 0.9 µmol/kg | 0.8 µmol/kg | – | –
2 | 45% | 31% | – | 14 h | 14 h | 31% | CC(C)Oc1ccnc(C[S+]([O-])c2nc3cc(F)ccc3[nH]2)c1 (stereo not drawn) [Ref., 5-fluoro-2-[[(4-isopropoxy-2-pyridinyl)methyl]-sulfinyl]-1H-benzimidazole] | 4 µmol/kg | 1.8 µmol/kg | – | – | 95% | 98%
